Measurements reported in patent publication US8765783B2, “Pharmaceutical composition for treatment of disease due to vascular constriction or vasodilation” (Ono Pharmaceuticals Co., Ltd., priority 2002, dated 2014).
“Also recorded” adds a separate entry of the source.

Experiments:
[1] = test system: rat removed basilar artery; test: Vasoconstrictor action of rat removed basilar artery; settings: 3 μM (FIG. 3, FIG. 4)
Protocol: Basilar arteries were removed from male rat (CD(SD)IGS, male, Charles River Japan, Inc., 8 weeks old-10 weeks old, 350-450 g) and quickly immersed in cooled Krebs-Henseleit solution. Removed basilar arteries were divided by about 3 mm width with ophthalmic scissors and made as ringed samples. Samples hung in micro tissue organ bath (MTOB-1: Preimetech Corp.) filled with Krebs-Henseleit solution (37° C.). They were loaded with about 0.2 g resting tension stabilized for about 60 minutes, and then constrictive movement was recorded on a recorder (linearcoda WR3320: Graphtec Corp.) through strain compression amplifier (AP-601G, Nihon Kohden) from micro tissue organ bath.

rat basilar artery = test: Vasoconstrictor action of rat basilar artery induced by S1P into cisterna (in vivo); settings: 10 μg/100 μL/rat, i.c., 30 minutes after S1P into cisterna
From the text: Rat (CD(SD)IGS, male, Charles River Japan Inc., 11 weeks old-13 weeks old, 400-550 g) was anesthetized by injection of urethane (1.2 g/kg, s.c.), incised scalp of occipital for administration of S1P into cisterna and then fixed to dorsal position. Rat was inserted into trachea with catheter and then, cut down with esophagus, and skull at the base of brain was exposed. Under the stereomicroscope, craniotomy was carefully operated with electric drill and scorper forceps. We made basilar artery expose, and it was done in the condition which arachnoid was left, and coating on basilar artery was exfoliated, and could be observed. Observation and image capture of basilar artery were performed using the stereomicroscope (Olympus Optics Inc., SZH-10) and charge-coupled device (CCD) camera (FUJIFILM, HC-2500) connected with it. Macscope (MITANI Corp.) was used as an Image capture software. […] Diameter of basilar artery was measured by selecting from an area having no branch in the center of basilar artery. The diameter was calculated by comparing with the length of micrometer (0.2 mm, 0.01 mm scale) shooted in the same condition. […] The calculation of percentage of basilar artery diameter was calculated by dividing diameter after the S1P administration by a pre-value. […]

SHR rat = test: Blood pressure of SHR rat; type: in vivo; settings: 1 mg/kg, 3 mg/kg and 10 mg/kg, i.v.; SHR rat under the awakening
From the text: Rat (SHR/Crj, male, Charles River Japan Inc., 12 weeks old-13 weeks old) was anesthetized by ether, and then rat was fixed in the dorsal position on the laboratory table. Cannula filled with physiologic saline containing heparin was inserted into the femoral artery and cannula filled with physiologic saline was inserted into the femoral vein, respectively. After finish of the operation, rat was fixed in the ballmancage and left at rest until the awakening. The artery cannula was connected to the piezotransducer (DX-100, Nihon Kohden) and the blood pressure was measured through strain compression amplifier(AP-601G, Nihon Kohden). After about 30 minutes from confirming awakening of rat, the blood pressure was measured for additional 30 minutes and then, the compound (3) (1 mg/kg, 3 mg/kg, and 10 mg/kg, i.v.) or vehicle (10% DMSO/plasma) was administered intravenously. After administration, blood pressure was measured for more than 30 minutes. […] In contrast, the compound (3) had little effect on the heart rate.

[2] = test system: removed rabbit coronary artery; test: Vasoconstrictor action of removed rabbit coronary artery; settings: removed rabbit coronary artery ring
Protocol: The heart was removed from Male rabbit (NZ White, a bout 2 kg) under anesthesia and immersed into cooled Krebs-Henseleit solution. After that, coronary artery was cut out, heart muscle and fat tissue connected around the heart were removed and ringed samples were made. Samples hung in micro tissue organ bath (MTOB-1: Preimetech Corp.) filled with Krebs-Henseleit solution (37° C.) or magnus tube, they were loaded with about 0.2 g-0.5 g resting tension stabilized for about 60 minutes, and then constrictive movement was recorded on a recorder (linearcoda WR3320: Graphtec Corp.) through strain compression amplifier (AP-601G, Nihon Kohden).

removed rat heart = test: Removed rat heart (Langendorff heart); settings: Langendorff heart mode
From the text: Rat (CD(SD)IGS, male, Charles River Japan Inc., 8 weeks old-10 weeks old, 300-450 g) was anesthetized by diethylether, opened the abdominal cavity, injected intravenously with heparin and then, exsanguinated to death. The heart was quickly removed by opening the chest cavity and the removed heart was immersed into cooled Krebs-Henseleit solution. The tissues were trimmed away under the cooling, aortic arches were inserted into the heart functional measuring equipment and fixed with sutures without leaking out. The rat heart function was measured using the heart functional measuring equipment (model IPH-W2, Labo-support). The equipment was used in the Langendorff Heart mode (non-working heart mode) and load was 68-70 mmHg. […] Catheter filled with physiological saline was inserted into the left ventricle, the catheter was connected to the piezotransducer (DX-100, Nihon Kohden) and the left ventricle pressure (LVP) was measured through strain compression amplifier (AP-601G, Nihon Kohden). Heart rate was calculated using LVP data with the heart rate measuring equipment (AT-601G, Nihon Kohden) and dLVP/dt was calculated with differential processor (EQ-641G, Nihon Kohden). Probes of electromagnetic flowmeter (model FF-020T, inside diameter 2 mm, Nihon Kohden) were set on the way to the passage of nutrient solution and the flow rate of nutrient solution (corresponding the blood flow rate of coronary artery) was measured using electromagnetic flowmeter (MFV-3100, Nihon Kohden). Administration of S1P and the compounds was performed by injection of dilution with nutrient solution into the passage of nutrient solution using infusion pump. The injection rate of drug solution was set as the flow rate of nutrient solution before starting of administration. […] Using the above mentioned model, effect of EDG-5 antagonist on heart function was examined. […] EDG-5 antagonist, the compound (1), the compound (2) and the compound (3) increased the flow rate of nutrient solution. In addition, they increased contractive force of heart muscle at the same time. […] It was considered that S1P had no direct chronotropic action and inotropic action on pacemaker and heart muscle and S1P had lowering effect on heart function by contracting the coronary blood vessels and ischemia.

Question: What does the source list for `Cc1nn(C)c2nc(NNC(=O)Nc3cc(Cl)nc(Cl)c3)cc(C(C)C)c12` [compound (3), N-(2,6-dichloro-4-piridinyl)-2-(4-isopropyl-1,3-dimethyl-1H-pyrazolo[3,4-b]pyridin-6-yl)hydrazinecarboxamide]?
Answer: inhibitory effect on vasoconstrictor action of rat removed basilar artery by S1P [1]: inhibitory effect; also recorded: suppression; inhibition of vasoconstrictor action of rat basilar artery by S1P (basilar artery diameter) (rat basilar artery): inhibited; also recorded: suppression; antihypertensive effect on SHR rat blood pressure (SHR rat): antihypertensive effect; inhibitory activity on constriction of rabbit coronary artery by S1P [2]: inhibitory activity; flow rate of nutrient solution (corresponding the blood flow rate of coronary artery) (removed rat heart): increased; contractive force of heart muscle (removed rat heart; EDG-5 antagonist): increased
